Assays:
[1] = tested on: frontalem Kortex, Hippokampus, Striatum und Formatio Reticularis abgeleiteten Feldpotentiale; experiment: Tele-Stereo-EEG: changes of EEG frequencies in freely moving rats after i.p. administration; format: in vivo, Fischer-344 Ratten; conditions: for Veränderungen der EEG-Frequenzen: i.p., 40 bis 100 mg/kg, rat, significant at least at P < 5 %-Level
Protocol: Testverfahren 1 ((Tele-Stereo-EEG)
Die Veränderungen der EEG-Frequenzen nach Gabe von Salzlösung (Kontrolle) bzw. einer Dosis von Tiaprid (40 bis 100 mg/kg Körpergewicht) wurden bestimmt.
Der Stecker diente der Aufnahme eines 4-Kanal-Senders zur telemetrischen Übertragung der aus frontalem Kortex, Hippokampus, Striatum und Formatio Reticularis abgeleiteten Feldpotentiale. Die Signale wurden auf einem Computer System (Software "EEG-Analyse", Betriebsystem OS Science, Laborrechner "LabTeam" der Firma MediSyst, Linden DE) in Echtzeit einer Fast-Fourier-Transformation unterworfen und die Leistungsdichtespektren jeweils über 15 bis 60 Minuten gemittelt. Die Unterteilung der Spektren in 6 verschiedene Frequenzbereiche erlaubte die Erfassung pharmakospezifischer Veränderungen in Bezug auf die jeweils vor der Applikation gemessenen Vorwerte innerhalb dieser Frequenzbänder.
Zum Applikationsprotokoll der Substanzen: Die Substanzen wurden i.p. 45 Minuten nach Beginn der Messungen (Vorwert) injiziert. Fünf Minuten später wurden die Messungen wieder gestartet, mindestens über die nächsten 5 Stunden kontinuierlich analysiert und in 15-minütigen Perioden zusammengefasst. Die Testsubstanz wurde in einer Dosierung von 40 bis 100 mg/kg appliziert. Die experimentelle Serie wurde mit der Injektion von Salzlösung (Kontrolle) begonnen.
Die beobachteten Frequenzänderungen wurden mittels einer Diskriminanzanalyse mit den Ergebnissen mit herkömmlichen antidepressiv wirkenden Arzneimitteln sowie Arzneimitteln für andere Indikationen verglichen. Es wurden folgende Arzneimittel verwendet: 100 mg/kg Tiaprid (Tiapr), 2 mg/kg Paroxetin (Parox), 10 mg/kg Imipramin (Imip), 10 mg/kg Amitryptilin (Amit), 1 mg/kg Nomifensin (Nomi), 0.5 mg/kg Midazolam (Midaz), 60 mg/kg Phenobarbital (Pheno), 60 mg/kg Meprobamat (Meprob), 0.5 mg/kg Chlorpromazin (Chlorp), 0,25 mg/kg Haloperidol (Halop), 1 mg/kg Prothipendyl (Prothi), 10 mg/kg Thioridazin (Thior), 15 mg/kg Carbamazepin (Carba), 75 mg/kg Valproinsäure (Valpr), 6 mg/kg Phenytoin (Pheny). Des weiteren wurden geprüft: 1,3 Vol.-% Halothan (Haloth), 100 mg/kg Propofol (Propo), 1,0 Vol.-% Isofluran (Isofl), 4,5 Vol.-% Desfluran (Desfl), 1,8 Vol.-% Sevofluran (Sevofl) und 1,7 Vol.-% Enfluran (Enfl). Die Ergebnisse sind in Fig. 2 dargestellt.

[2] = tested on: Pyramidenzellen im Hippokampus-Schnittpräparat der Ratte; experiment: Long-term potentiation in the hippocampus slice preparation in vitro; set-up: species or system CD-Ratten
Protocol: Testmethode 2 (Langzeitpotenzierung im Hippokampus-Schnittpräparat in vitro)
Die Wirkung von Tiaprid auf die Langzeitpotenzierung der Pyramidenzellen im Hippokampus-Schnittpräparat der Ratte wurde bestimmt.
Für die Durchführung dieser Studie wurden 15 erwachsene männliche CD-Ratten verwendet. Die Isolation des Hippokampus erfolgte an äthernarkotisierten und anschließend exsanguinierten Tieren. In Phosphat-gepufferter Salzlösung (NaCl: 124 mM; KCl: 5 mM; CaCl2: 2 mM; MgSO4: 2 mM; NaH2PO4: 1,25 mM; NaHCO3: 26 mM; Glucose: 10 mM; Kontroll-Lösung: künstliche Zerebral-Spinal-Flüssigkeit (ASCF, artificial cerebral spinal fluid); alle von der Firma Roth, Karlsruhe DE) wurde der mittlere Teil des Hippokampus mit Hilfe eines Schnellklebers aufgeblockt und mit einem Vibratom (Rhema Labortechnik) in 400 µm dicke Scheiben geschnitten. Die Aufbewahrung dieses Hippokampusschnittes erfolgte für mindestens 1 Stunde vor Versuchsbeginn (siehe S.J. Schiff, G.G. Somjen "The Effects of Temperature on Synaptic Transmission in Hippocampal Tissue Slices" Brain Research (1985), 345, 279-284) in einer mit Carbogen durchperlten Inkubationskammer.
Das Experiment selbst wurde in einer sog. "Base Unit mit Haas Top" (Firma Medical Systems Corp.) bei 35°C durchgeführt. Der mit Hilfe peristaltischer Pumpen (Infusomat, B. Braun Melsungen AG) superfundierte Hippokampusschnitt lag auf einem Stück Gaze. […]

D2/D3 Dopaminrezeptoren = conditions: from the literature (Scatton et al., Eur Psychiatry 2001); cited from earlier work

With `CCN(CC)CCNC(=O)c1cc(S(C)(=O)=O)ccc1OC` [Tiaprid, N-2-(Diethylaminoethyl)-5-methylsulfonyl-2-methoxybenzamide] the “Muster der EEG-Frequenzänderungen ("Fingerprint", Diskriminanzanalyse)” value ([1]; discriminant analysis against antidepressants and drugs for other indications, 100 mg/kg Tiaprid) was “korrelieren in signifikanter Weise mit den Mustern, die für andere antidepressive Arzneimittel kennzeichnend sind”, the “Veränderungen der EEG-Frequenzen” value ([1]; first hour after administration) was “Abfall bei allen Frequenzen” and the “Veränderungen der elektrischen Gehirnaktivität” value ([1]; i.p. single dose, compared with saline (0,9 % NaCl-Lösung), all brain areas, all frequencies) was “statistisch signifikantes Niveau im Vergleich zu Salzlösung”. For the same compound, the “Veränderungen der EEG-Frequenzen” value ([1]; next (second) hour after administration) was “im Hippokampus und Striatum Theta- und Alpha2-Wellen nicht mehr so stark vermindert”, the “Amplitude der Populationsspikes” value ([2]; Tiaprid added to superfusion fluid, 2 concentrations, rat hippocampus slice, 35°C, N = 6 slices) was “konzentrationsabhängig zu einer deutlichen Abnahme der Amplitude der Populationsspikes” and the Langzeitpotenzierung ([2]; rat hippocampus slice in vitro, tetanic stimulus) was “Unterdrückung der "Langzeitpotenzierung"”. For the same compound, the Rezeptor-Bindungsprofil (D2/D3 Dopaminrezeptoren) was “selektive Blockade von D2/D3 Dopaminrezeptoren”.

Reference: EP1380292A1, “Tiaprid for the treatment of depressions” (Mewicon med. wiss. Beratung GmbH, priority 2002, dated 2004)
